Assay results published in ChEMBL document CHEMBL1201862, “PubChem BioAssay data set” (2004).
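Cultured in 96-well plates, cells were exposed to test compound for 48 hours across five concentrations. GI50 is the concentration that inhibits growth by half.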 Activity calls are given as the source filed them. Rule as the data show it: active = GI50 up to about 1.1 µM and inactive = higher.

Key:
Test in all cases: growth of human tumour cells (NCI), 48 h
CCRF-CEM = system: CCRF-CEM
SNB-75 = system: SNB-75
NCI-H226 = system: NCI-H226
K562 = system: K562
RPMI-8226 = system: RPMI-8226
TK-10 = system: TK-10
ACHN = system: ACHN
A549 = system: A549
HCC 2998 = system: HCC 2998
SK-MEL-28 = system: SK-MEL-28
SF-268 = system: SF-268
LOX IMVI = system: LOX IMVI
CAKI-1 = system: CAKI-1
UACC-257 = system: UACC-257
A498 = system: A498

| Compound | GI50 (CCRF-CEM) | GI50 (SNB-75) | GI50 (NCI-H226) | GI50 (K562) | GI50 (RPMI-8226) | GI50 (TK-10) | GI50 (ACHN) | GI50 (A549) | GI50 (HCC 2998) | GI50 (SK-MEL-28) | GI50 (SF-268) | GI50 (LOX IMVI) | GI50 (CAKI-1) | GI50 (UACC-257) | GI50 (A498) |
| --- | --- | --- | --- | --- | --- | --- | --- | --- | --- | --- | --- | --- | --- | --- | --- |
| Nc1nc(Cl)cc(NCCCCCCCCNc2cc(Cl)nc(N)n2)n1 | 73.3 µM (inactive) | 25.9 µM (inactive) | 6.24 µM (inactive) | 2.2 µM (inactive) | 2.4 µM (inactive) | 14.9 µM (inactive) | 0.221 µM (active) | 3.56 µM (inactive) | 65.6 µM (inactive) | 31.8 µM (inactive) | 36.8 µM (inactive) | 3.82 µM (inactive) | 8.81 µM (inactive) | 2.91 µM (inactive) | – |
| COc1ccc2c(c1)C(=O)C1CC(=O)CCC21 (stereo unspecified) | > 100 µM (inactive) | > 100 µM (inactive) | > 100 µM (inactive) | > 100 µM (inactive) | > 100 µM (inactive) | > 100 µM (inactive) | > 100 µM (inactive) | > 100 µM (inactive) | > 100 µM (inactive) | > 100 µM (inactive) | > 100 µM (inactive) | > 100 µM (inactive) | > 100 µM (inactive) | > 100 µM (inactive) | > 100 µM (inactive) |
| CC(CCCOC(c1ccccc1)(c1ccccc1)c1ccccc1)OC(=O)Nc1ccccc1 (stereo unspecified) | 14.6 µM (inactive) | 14.5 µM (inactive) | 12.6 µM (inactive) | 11.3 µM (inactive) | 15 µM (inactive) | 20.4 µM (inactive) | 13.6 µM (inactive) | 11.1 µM (inactive) | 14.1 µM (inactive) | 15.3 µM (inactive) | 12.8 µM (inactive) | 12.7 µM (inactive) | 13.5 µM (inactive) | 15.3 µM (inactive) | – |
| CCCCCCCCOCC(O)COC (stereo unspecified) | > 100 µM (inactive) | – | > 100 µM (inactive) | 63.8 µM (inactive) | > 100 µM (inactive) | > 100 µM (inactive) | > 100 µM (inactive) | > 100 µM (inactive) | > 100 µM (inactive) | > 100 µM (inactive) | > 100 µM (inactive) | > 100 µM (inactive) | > 100 µM (inactive) | 69.7 µM (inactive) | > 100 µM (inactive) |
| COc1cc2cnc3c4cc(OC(C)C)c(OC)cc4ccc3c2cc1OC | > 100 µM (inactive) | > 100 µM (inactive) | – | > 100 µM (inactive) | > 100 µM (inactive) | > 100 µM (inactive) | > 100 µM (inactive) | > 100 µM (inactive) | > 100 µM (inactive) | > 100 µM (inactive) | > 100 µM (inactive) | – | > 100 µM (inactive) | > 100 µM (inactive) | > 100 µM (inactive) |
| O=C(/C(=C/c1ccc(Cl)cc1)c1ccccc1)c1ccccc1 | 32.4 µM (inactive) | 22.8 µM (inactive) | 17.1 µM (inactive) | 27.4 µM (inactive) | 18.5 µM (inactive) | 25.4 µM (inactive) | 19.7 µM (inactive) | – | 16.9 µM (inactive) | 16.9 µM (inactive) | 18.2 µM (inactive) | 15.4 µM (inactive) | – | 13.6 µM (inactive) | 23.6 µM (inactive) |
| CC1(c2cccc(N)c2)C2C(=O)NC(=O)C1C(=O)NC2=O (stereo unspecified) | 22.4 µM (inactive) | 28.1 µM (inactive) | 28.1 µM (inactive) | 24.2 µM (inactive) | 16 µM (inactive) | 50.9 µM (inactive) | 28.2 µM (inactive) | 33.9 µM (inactive) | 52.2 µM (inactive) | 38.6 µM (inactive) | 35.7 µM (inactive) | 28.1 µM (inactive) | 61.9 µM (inactive) | 37.9 µM (inactive) | 23.4 µM (inactive) |
| C/C(CN1C(=O)c2ccccc2C1=O)=N\NS(=O)(=O)c1cccc([N+](=O)[O-])c1 | > 100 µM (inactive) | > 100 µM (inactive) | > 100 µM (inactive) | > 100 µM (inactive) | > 100 µM (inactive) | > 100 µM (inactive) | > 100 µM (inactive) | > 100 µM (inactive) | > 100 µM (inactive) | > 100 µM (inactive) | > 100 µM (inactive) | – | > 100 µM (inactive) | > 100 µM (inactive) | > 100 µM (inactive) |
| CCC1(C(=O)OC)CCc2c(OC)ccc(OC)c2C1=O (stereo unspecified) | > 100 µM (inactive) | – | – | > 100 µM (inactive) | > 100 µM (inactive) | > 100 µM (inactive) | > 100 µM (inactive) | > 100 µM (inactive) | > 100 µM (inactive) | > 100 µM (inactive) | > 100 µM (inactive) | > 100 µM (inactive) | > 100 µM (inactive) | > 100 µM (inactive) | > 100 µM (inactive) |
| C/C(CCn1[nH]c(=O)ccc1=O)=N\NC(=O)C(N)=O | – | > 100 µM (inactive) | > 100 µM (inactive) | > 100 µM (inactive) | – | > 100 µM (inactive) | > 100 µM (inactive) | > 100 µM (inactive) | > 100 µM (inactive) | > 100 µM (inactive) | > 100 µM (inactive) | > 100 µM (inactive) | > 100 µM (inactive) | > 100 µM (inactive) | > 100 µM (inactive) |
| Cc1nc(Nc2ccc([N+](=O)[O-])cc2)sc1C(/C=C/c1ccc(N(C)C)cc1)=N/NC(=O)c1ccccc1 | 38.3 µM (inactive) | > 100 µM (inactive) | 63 µM (inactive) | 18.5 µM (inactive) | – | 52.8 µM (inactive) | 39.6 µM (inactive) | 46.5 µM (inactive) | 41.3 µM (inactive) | > 100 µM (inactive) | 43 µM (inactive) | 36.6 µM (inactive) | > 100 µM (inactive) | 82.2 µM (inactive) | – |
| Cc1c(Cl)cccc1N1C(=O)C(Cl)=C(Cl)C1=O | 16.4 µM (inactive) | > 100 µM (inactive) | > 100 µM (inactive) | 17.9 µM (inactive) | 43 µM (inactive) | > 100 µM (inactive) | > 100 µM (inactive) | > 100 µM (inactive) | > 100 µM (inactive) | > 100 µM (inactive) | > 100 µM (inactive) | > 100 µM (inactive) | > 51.8 µM (inactive) | > 100 µM (inactive) | > 100 µM (inactive) |
| COc1ccc(/C(C#N)=C(/N)SCc2ccccc2Cl)cc1 | 27.9 µM (inactive) | 23.2 µM (inactive) | 16.4 µM (inactive) | 18.5 µM (inactive) | 22.8 µM (inactive) | 32.1 µM (inactive) | > 10 µM (inactive) | 26.4 µM (inactive) | 17 µM (inactive) | 17.9 µM (inactive) | 16.4 µM (inactive) | 15.2 µM (inactive) | – | 16.7 µM (inactive) | 18.9 µM (inactive) |
| CCOC(=O)c1cn(Cc2ccccc2)c(=O)n1Cc1ccccc1 | 62.8 µM (inactive) | > 100 µM (inactive) | > 100 µM (inactive) | 52 µM (inactive) | 40.2 µM (inactive) | > 100 µM (inactive) | > 100 µM (inactive) | 75 µM (inactive) | > 100 µM (inactive) | > 100 µM (inactive) | > 100 µM (inactive) | > 100 µM (inactive) | 77.1 µM (inactive) | > 100 µM (inactive) | > 100 µM (inactive) |
| Clc1ccccc1C1N2CCCCC2[C@@H]2c3[nH]c4ccccc4c3CCN12 (stereo partly specified) | 19.1 µM (inactive) | 32.4 µM (inactive) | – | 14.3 µM (inactive) | 23.8 µM (inactive) | 23.8 µM (inactive) | 16.2 µM (inactive) | > 10 µM (inactive) | 18.6 µM (inactive) | 18.5 µM (inactive) | 17.9 µM (inactive) | – | > 10 µM (inactive) | 18.7 µM (inactive) | 13.9 µM (inactive) |
| CCC12CC[C@H](C#N)N3CCc4c(n(c5ccccc45)C(=O)C1)C32 (stereo partly specified) | 12.3 µM (inactive) | 5.56 µM (inactive) | – | 5.28 µM (inactive) | 17.9 µM (inactive) | 16.4 µM (inactive) | > 10 µM (inactive) | 15.9 µM (inactive) | 15.8 µM (inactive) | 15.2 µM (inactive) | 17.9 µM (inactive) | 14.1 µM (inactive) | 12.6 µM (inactive) | 14 µM (inactive) | 13.3 µM (inactive) |
| CC(C)(O)[C@@H]1CC[C@@]2(C)CCCC(O)C2(O)C1 (stereo partly specified) | > 100 µM (inactive) | > 100 µM (inactive) | > 100 µM (inactive) | > 100 µM (inactive) | > 100 µM (inactive) | > 100 µM (inactive) | > 100 µM (inactive) | > 100 µM (inactive) | > 100 µM (inactive) | > 100 µM (inactive) | > 100 µM (inactive) | > 100 µM (inactive) | > 100 µM (inactive) | > 100 µM (inactive) | > 100 µM (inactive) |
| COc1cc(C=O)c(-c2cc3c(cc2C=O)OCO3)c(OC)c1OC | 88.1 µM (inactive) | – | 93.1 µM (inactive) | 87.1 µM (inactive) | 96.6 µM (inactive) | 210 µM (inactive) | > 290 µM (inactive) | 93.8 µM (inactive) | 210 µM (inactive) | 144 µM (inactive) | 101 µM (inactive) | 85.7 µM (inactive) | 76.9 µM (inactive) | 123 µM (inactive) | – |
| C[C@@H]1C[C@@H]([C@H](O)CC2CC(=O)NC(=O)C2)C(=O)[C@@H](C)C1 [CYCLOHEXIMIDE] | < 0.0186 µM (active) | 0.083 µM (active) | 0.219 µM (active) | 0.0528 µM (active) | 0.0362 µM (active) | 0.0865 µM (active) | 0.0291 µM (active) | 0.0366 µM (active) | 0.0378 µM (active) | 0.0352 µM (active) | 0.0438 µM (active) | 0.0374 µM (active) | – | 0.0912 µM (active) | – |
| COc1cc(C)c(CC/C(C)=C/Cc2cc(O)ccc2O)c(C)c1C [PANICEIN A HYDROQUINONE] | 7.69 µM (inactive) | > 25 µM (inactive) | > 25 µM (inactive) | > 25 µM (inactive) | > 25 µM (inactive) | > 25 µM (inactive) | > 25 µM (inactive) | > 25 µM (inactive) | > 25 µM (inactive) | > 25 µM (inactive) | > 25 µM (inactive) | – | > 25 µM (inactive) | – | > 25 µM (inactive) |
